We go through 24 compounds from USRE47193E1, “Selectively substituted quinoline compounds” (EISAI R&D MANAGEMENT CO., LTD., priority 2013, dated 2019).

In one test the test system is Human TLR7/8. Put plainly: Human PBMC cell-based assay, TLR7/8 stimulus (RNA-Ig), cytokine ELISA. Conditions: primary human PBMC assay, TLR7/8 potency; ligand not given; read-out: Human PBMCs IC50. The protocol: Human PBMC Cell-Based Assay. Human peripheral blood mononuclear cells (PBMC) were isolated from freshly-drawn heparinized (10 USP units/ml, Hospira, Lakeforest, Ill.) healthy donor whole blood by density gradient (Histopaque® 1077, Sigma, Inc., St. Louis, Mo.). Briefly, 25 ml blood was diluted with 15 ml PBS (without Ca^2+, Mg^2+) in a 50 ml conical tube, and 12 ml Histopaque was underlaid using a spinal needle. Tubes were centrifuged for 45 minutes at 1200 rpm (350×g), and PBMC were collected from the buffy coat. Cells were then washed twice in PBS, and red blood cells were lysed by suspension in 5 ml ammonium chloride solution (1× Red Blood Cell Lysis Buffer, eBioscience) for 5 minutes at room temperature. After a final wash in PBS, PBMC were resuspended at a final concentration of 2×10^6/ml in RPMI-1640 media with L-glutamine (Invitrogen) and supplemented with 25 mM HEPES (Mediatech, Inc, Manassas Va.), 10% fetal bovine serum (HyClone, Logan, Utah), and Penicillin-Streptomycin-Glutamine (Mediatech) and plated at 100 ul/well (2×10^5 cells/well) in tissue culture treated 96-well plates (Falcon).
Antagonist compounds solubilized and serial diluted in 100% DMSO were added in triplicate to cells to yield a final concentration of 0.1% DMSO (v/v). Hydroxychloroquine (Acros Organics) solubilized and serial diluted in PBS was added in triplicate to cells. PBMC were incubated with antagonist compounds or HCQ for 30 minutes at 37° C., 5% CO2 before adding various TLR agonist reagents in 100 ul complete media per well as follows (final concentrations indicated): R848 (Resiquimod; GLSynthesis, Worcester, Mass.) at 1 uM for TLR7 and TLR8, LPS (Sigma) at 10 ng/ml for TLR4, and CpG-2216 (InvivoGen) at 5 ug/ml for TLR9. To prepare a TLR7/8 agonist that mimics RNA-containing auto-antibody immune complexes in lupus patients, a 26-mer RNA with a sequence derived from human U1 snRNA stem loop IV [(sequence: […]-[…] (SEQ ID NO: 2) with phosphorothioate backbone] was synthesized (Dharmacon, Inc., Lafayette, Colo.), which has been shown previously to be a potent TLR7 and TLR8 agonist. This RNA molecule was diluted to 2.5 μM in serum-free RPMI, and mouse anti-human single stranded DNA monoclonal antibody (MAB3034, Millipore, Inc., Billerica, Mass.), which also cross-reacts with RNA, was added at a 1:25 dilution or at 1 ug/ml. The resulting “RNA-Ig” stimulus was incubated at room temperature for 15-30 minutes before adding to cells. PBMC were incubated with the various TLR agonists for 20 hours at 37° C., 5% CO2. Cell culture supernatants were collected, and levels of various human cytokines were assessed as indicated by standard ELISA procedure according to the manufacturer's recommended protocol (BD Biosciences, Inc., San Diego, Calif.). In a subsequent assay (Table 6) the ability of ER-899742 to block stimulation of normal PBMC by various TLR7/8 ligands, but not DNA-mediated activation of TLR9, was examined. In this assay cells were plated at 1×10^5 cells/well in 100 ul in 96-well plates.

A further test deals with T1, mouse TLR7 (Mus musculus, UniProt P58681).
T1 sequence (P58681 27-1050): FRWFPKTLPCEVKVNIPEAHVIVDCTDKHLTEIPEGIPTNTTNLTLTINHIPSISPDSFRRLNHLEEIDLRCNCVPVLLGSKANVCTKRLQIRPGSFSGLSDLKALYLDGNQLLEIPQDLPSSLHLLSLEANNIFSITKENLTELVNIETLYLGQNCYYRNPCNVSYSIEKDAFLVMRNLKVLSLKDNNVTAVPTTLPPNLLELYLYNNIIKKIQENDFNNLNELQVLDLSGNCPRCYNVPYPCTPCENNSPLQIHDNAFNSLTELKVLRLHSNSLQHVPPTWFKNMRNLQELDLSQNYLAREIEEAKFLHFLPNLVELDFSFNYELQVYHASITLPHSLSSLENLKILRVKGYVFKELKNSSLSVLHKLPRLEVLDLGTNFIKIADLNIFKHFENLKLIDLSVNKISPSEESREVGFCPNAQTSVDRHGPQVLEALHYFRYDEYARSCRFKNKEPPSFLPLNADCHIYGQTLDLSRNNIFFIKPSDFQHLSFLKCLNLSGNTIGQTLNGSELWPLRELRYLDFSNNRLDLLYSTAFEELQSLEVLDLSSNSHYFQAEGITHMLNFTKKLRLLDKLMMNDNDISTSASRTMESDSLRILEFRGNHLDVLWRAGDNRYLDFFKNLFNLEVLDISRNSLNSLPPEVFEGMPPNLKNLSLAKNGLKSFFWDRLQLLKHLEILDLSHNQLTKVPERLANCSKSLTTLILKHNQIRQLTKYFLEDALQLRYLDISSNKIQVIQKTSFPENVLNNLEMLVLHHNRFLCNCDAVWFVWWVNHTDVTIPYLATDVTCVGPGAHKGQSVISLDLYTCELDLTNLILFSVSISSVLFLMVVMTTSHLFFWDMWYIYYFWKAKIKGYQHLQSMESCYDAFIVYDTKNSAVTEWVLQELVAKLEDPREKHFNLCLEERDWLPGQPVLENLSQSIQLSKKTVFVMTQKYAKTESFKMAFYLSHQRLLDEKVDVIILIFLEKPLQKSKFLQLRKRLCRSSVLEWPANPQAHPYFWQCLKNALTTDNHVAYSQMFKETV
The test can be described thus: Short-term in vivo (STIV) assay: oral dosing, R848 s.c., plasma IL-6. Details: female BALB/c mice (Jackson Labs, Bar Harbor, Me.) were dosed by oral gavage; tissue Jackson Labs; host or cells: living female BALB/c mice; plasma IL-6 after s.c. R848. The protocol: Figure Legend: Female BALB/c mice were dosed by oral gavage with Vehicle alone (0.5% aqueous methyl-cellulose) or compound formulated in Vehicle at 33 mg/kg, 100 mg/kg or 300 mg/kg. […] (FIG. 1A).
Short-term in vivo (STIV) assay: To assess compound potency in vivo against mouse TLR7, a short-term in vivo (STIV) assay was utilized. Briefly, mice were orally dosed with compounds and at various time points afterwards were injected subcutaneously with agonist R848 to stimulate TLR7. The plasma IL-6 level following R848 stimulation was then measured by ELISA to assess compound potency and duration-of-action.
Short-term in vivo (STIV) assay. Six to eight week old female BALB/c mice (Jackson Labs, Bar Harbor, Me.) were dosed by oral gavage in 200 ul volume with antagonist compounds formulated in 0.5% aqueous methyl-cellulose (Sigma, St. Louis, Mo.). At various time points afterwards, mice were injected subcutaneously (s.c.) in 100 ul volume with 15 ug R848 (Resiquimod; GLSynthesis, Worcester, Mass.) to stimulate TLR7.

In the case of `CC1CCC(NCC2CN(c3ccc(C#N)c4ncccc34)CC(C)O2)CC1` (mixture of isomers) [ER-887442], in the test on Human TLR7/8, the IC50 was 47 nM.
Still for that read-out and setting: the value for `N#Cc1ccc(N2CCOC(CCl)C2)c2cccnc12` (centres unmarked) [ER-879570] was 113 nM; that for `CC(=O)NC[C@H]1CN(c2ccc(C#N)c3ncccc23)C[C@@H](C)O1` [ER-879689] was 1240 nM.
On the same count and under the same terms, as for `C[C@@H]1CN(c2ccc(C#N)c3ncccc23)C[C@H](CN)O1` [ER-884884], the figure is 204 nM; as for `CCOCC1CN(c2ccc(C#N)c3ncccc23)CC(C)O1` (centres unmarked) [ER-885807], 331 nM; as for `CCC[C@H]1CN(c2ccc(C#N)c3ncccc23)C[C@@H](C)O1` [ER-886131], 98 nM.
Still for that read-out and setting: as for `C[C@H]1CN(c2ccc(C#N)c3ncccc23)C[C@@H](CF)O1` [ER-886133], the figure is 127 nM; as for `C[C@H]1CN(c2ccc(C#N)c3ncccc23)C[C@@H](CCl)O1` [ER-886134], 277 nM; as for `CC(C(=O)NC[C@H]1CN(c2ccc(C#N)c3ncccc23)C[C@@H](C)O1)c1ccccc1` (some centres unmarked) [ER-886360], 486 nM.
With `Cc1ccc(OC[C@H]2CN(c3ccc(C#N)c4ncccc34)C[C@@H](C)O2)cc1` [ER-886516], in the test with Human TLR7/8, the IC50 was determined as 56 nM.
In the case of `C[C@@H]1CN(c2ccc(C#N)c3ncccc23)C[C@H](COc2ccc(F)c(F)c2)O1` [ER-886605], the IC50 in the test on Human TLR7/8 was determined as 21 nM.
With `C[C@@H]1CN(c2ccc(C#N)c3ncccc23)C[C@H](COc2cccc(F)c2)O1` [ER-886606], in the test on Human TLR7/8, the 50% inhibitory concentration (IC50) worked out at 15 nM.
Same read-out and setting: as for `Cc1nc2cc(NC[C@H]3CN(c4ccc(C#N)c5ncccc45)C[C@@H](C)O3)ccc2n1C` [ER-886608], the figure is 1 nM; as for `CCn1c(C)nc2cc(NC[C@H]3CN(c4ccc(C#N)c5ncccc45)C[C@@H](C)O3)ccc21` [ER-886609], 4 nM.
Consider `C[C@@H]1CN(c2ccc(C#N)c3ncccc23)C[C@H](CNC2CCCCC2)O1` [ER-886611], for which the “% Suppression vs. Vehicle” value was determined as 90% at mouse TLR7 (3 h, 33 mg/kg); 100% at mouse TLR7 (3 h, 100 mg/kg); 53% on mouse TLR7 (3 h after oral dose, 11 mg/kg); 0% at mouse TLR7 (6 h, 11 mg/kg); 90% on mouse TLR7 (6 h, 33 mg/kg); 100% at mouse TLR7 (6 h, 100 mg/kg). Also, the “% Suppression vs. Vehicle” value at mouse TLR7 (19 h, 11 mg/kg) is listed as 19%; on mouse TLR7 (19 h, 33 mg/kg), 0%; on mouse TLR7 (19 h, 100 mg/kg), 100%.
Consider `CC1CN(c2ccc(C#N)c3ncccc23)CC(CNc2ncccn2)O1` (centres unmarked) [ER-886787], for which the 50% inhibitory concentration (IC50) in the test with Human TLR7/8 was determined as 76 nM.
In the case of `C[C@@H]1CN(c2ccc(C#N)c3ncccc23)C[C@H](CNc2ccccn2)O1` [ER-886788], the “% Suppression vs. Vehicle” value at mouse TLR7 (3 h, 33 mg/kg) turned out to be 0%; on mouse TLR7 (3 h, 100 mg/kg), 0%; at mouse TLR7 (3 h, 300 mg/kg), 24%; on mouse TLR7 (6 h, 33 mg/kg), 0%; on mouse TLR7 (6 h, 100 mg/kg), 27%; at mouse TLR7 (6 h, 300 mg/kg) it was 26%. For the same compound, the “% Suppression vs. Vehicle” value at mouse TLR7 (19 h, 33 mg/kg) is 0%; at mouse TLR7 (19 h, 100 mg/kg), 17%; at mouse TLR7 (19 h, 300 mg/kg) it was 2%.
On to `Cc1ccnc(NCC2CN(c3ccc(C#N)c4ncccc34)CC(C)O2)c1` (centres unmarked) [ER-886853], for which the half-inhibitory concentration (IC50) in the test with Human TLR7/8 amounted to 4 nM.
`COc1cccnc1NC[C@H]1CN(c2ccc(C#N)c3ncccc23)C[C@@H](C)O1` [ER-886948]: the “% Suppression vs. Vehicle” value at mouse TLR7 (3 h, 33 mg/kg) was determined as 46%; on mouse TLR7 (3 h, 100 mg/kg) it was 89%; at mouse TLR7 (3 h, 300 mg/kg) it was 100%; on mouse TLR7 (6 h, 33 mg/kg), 35%; at mouse TLR7 (6 h, 100 mg/kg) it was 44%; on mouse TLR7 (6 h, 300 mg/kg), 81%. The “% Suppression vs. Vehicle” value at mouse TLR7 (19 h, 33 mg/kg) is 0%; at mouse TLR7 (19 h, 100 mg/kg), 5%; at mouse TLR7 (19 h, 300 mg/kg) it was 49%.
Take `C[C@@H]1CN(c2ccc(C#N)c3ncccc23)C[C@H](CN2CCC(C(N)=O)CC2)O1` [ER-888320]: the “% Suppression vs. Vehicle” value is 100% at mouse TLR7 (3 h, 100 mg/kg); 78% on mouse TLR7 (6 h, 33 mg/kg); 94% at mouse TLR7 (6 h, 100 mg/kg); 9% at mouse TLR7 (13 h, 33 mg/kg); 31% at mouse TLR7 (13 h, 100 mg/kg).
Turning to `C[C@@H]1CN(c2ccc(C#N)c3ncccc23)C[C@H](CN2CCC(N3CCN(C)CC3)CC2)O1` [ER-890223], the “% Suppression vs. Vehicle” value on mouse TLR7 (3 h, 33 mg/kg) was 93%; on mouse TLR7 (3 h, 100 mg/kg), 99%; on mouse TLR7 (6 h, 33 mg/kg), 82%; on mouse TLR7 (6 h, 100 mg/kg), 99%; at mouse TLR7 (19 h, 100 mg/kg), 88%.
Regarding `CC(C)C(=O)NC1CN(C[C@H]2CN(c3ccc(C#N)c4ncccc34)C[C@@H](C)O2)C1` [ER-894206], the “% Suppression vs. Vehicle” value on mouse TLR7 (3 h, 33 mg/kg) is 96%; at mouse TLR7 (6 h, 33 mg/kg), 85%; on mouse TLR7 (6 h, 100 mg/kg), 98%; at mouse TLR7 (13 h, 33 mg/kg), 42%; on mouse TLR7 (13 h, 100 mg/kg), 77%.
Take `C[C@@H]1CN(c2ccc(C#N)c3ncccc23)C[C@H](C(=O)NC2(C)CCNCC2)O1` [ER-899718]: the “% Suppression vs. Vehicle” value on mouse TLR7 (6 h, 100 mg/kg) worked out at 74%; at mouse TLR7 (13 h, 100 mg/kg), 51%.
With `C[C@@H]1CN(c2ccc(C#N)c3ncccc23)C[C@H](C(=O)NC2(C)CCN(C)CC2)O1` [ER-899835], the “% Suppression vs. Vehicle” value on mouse TLR7 (6 h, 100 mg/kg) was 99%; on mouse TLR7 (13 h, 100 mg/kg), 79%.
